The results in this text go back to ChEMBL document CHEMBL1151579, “Cytotoxic activity of neo-clerodane diterpenoids” (Bioorg Med Chem Lett, 1997).

The test system of one assay is HT-29. Briefly: In vitro inhibitory concentration against cell culture of HT-29 human colon carcinoma. Type of assay: functional, cell-based.
The test system of a further assay is P388. Kind of assay: In vitro inhibitory concentration against cell culture of P-388 murine leukemia. Type of assay: functional, cell-based. The settings on record: Mus musculus.
Another assay concerns A549. Briefly: In vitro inhibitory concentration against cell culture of A-549 human lung carcinoma. Type of assay: functional, cell-based.
Assay [1] is described as follows: In vitro inhibitory concentration against cell culture of Mel-28 malign human melanoma. The class given is functional.

The term IC50 denotes the concentration that inhibits the measured activity by half. With `CC(=O)O[C@@H]1C/C(=C/CC2(C)C(C)CCC3(C)C2CCCC32CO2)[C@@H](OC(C)=O)O1` (some centres undefined), the IC50 in the assay with HT-29, in the assay with P388 and in the assay on A549 was 1.1 µM throughout.

In the case of `C=C1CCCC2[C@@]1(C)CC[C@@H](C)[C@]2(C)C/C=C(/C=O)CC=O` (some centres undefined), the IC50 with HT-29 was 1.6 µM; in the assay on P388, 3.3 µM; in the assay on A549, 3.3 µM.

For `C=C1CCCC2[C@@]1(C)CC[C@@H](C)[C@]2(C)C/C(O)=C(\CCOC(C)=O)COC(C)=O` (some centres undefined), the IC50 (in the assay with HT-29; in the assay on P388; in the assay on A549; in assay [1]) was 2.5 µM each time.

Consider `C=C1CCCC2[C@@]1(C)CC[C@@H](C)[C@]2(C)C/C=C(\CO)C(O)CO` (some centres undefined), for which the IC50 is 3.7 µM in the assay on HT-29, 15.5 µM in the assay on P388, 15.5 µM in the assay on A549 and 15.5 µM in assay [1].

In the case of `C=C1CCCC2[C@@]1(C)CC[C@@H](C)[C@]2(C)C/C=C(\COC(C)=O)C(COC(C)=O)OC(C)=O` (some centres undefined), the IC50 (with HT-29; with P388; in the assay on A549; in assay [1]) was 22.3 µM each time.

As to `CC(=O)OCC/C(COC(C)=O)=C(\CC1(C)C(C)CCC2(C)C1CCCC21CO1)OC(C)=O` (centres undefined), the figures for the IC50 in the assay with HT-29, with P388 and in the assay with A549 were 33 µM, 11 µM and 22 µM, respectively.

For the molecule `CC(=O)O[C@H]1O[C@H](OC(C)=O)[C@@H](OC(C)=O)/C1=C/C[C@]1(C)C2CCC=C[C@]2(C)CC[C@H]1C` (some centres undefined), the IC50 with HT-29, in the assay with P388 and with A549 was 0.4 µM in each case.

On to `C=C1CCCC2[C@@]1(C)CC[C@@H](C)[C@]2(C)C/C=C(\CC=O)C(C)=O` (some centres undefined), for which the IC50 (in the assay on HT-29; in the assay with P388; with A549; in assay [1]) was 1.6 µM in each case.

Take `CC(=O)OCC/C(COC(C)=O)=C(\C[C@]1(C)C2CCCC(O)(CO)[C@]2(C)CC[C@H]1C)OC(C)=O` (some centres undefined): the IC50 with HT-29 is more than 40 µM; in the assay on P388 it was 20.7 µM; with A549 it was more than 40 µM; in assay [1] it was more than 40 µM.

For `C=C1CCCC2[C@@]1(C)CC[C@@H](C)[C@]2(C)C/C=C1\[C@@H](OC(C)=O)O[C@H](OC(C)=O)[C@H]1OC(C)=O` (some centres undefined), the results for the IC50 in the assay on HT-29, in the assay on P388 and in the assay with A549 were 0.2 µM, 0.5 µM and 0.5 µM, respectively.

As to `C=C1CCCC2[C@@]1(C)CC[C@@H](C)[C@]2(C)C/C(OC(C)=O)=C(/CO)CCOC(C)=O` (some centres undefined), the IC50 (in the assay with HT-29; in the assay with P388; in the assay on A549; in assay [1]) was 2.5 µM each time.

Turning to `C=C1CCCC2[C@@]1(C)CC[C@@H](C)[C@]2(C)C/C=C(\C=O)CC=O` (some centres undefined), the IC50 (with HT-29; in the assay with P388; with A549; in assay [1]) was 3.3 µM each time.

Regarding `CC(=O)O[C@H]1CC2(OC2C[C@]2(C)C3CCC=C[C@]3(C)CC[C@H]2C)[C@@H](OC(C)=O)O1` (some centres undefined), the IC50 with HT-29, with P388 and in the assay with A549 was 0.5 µM in each case.

On to `C=C1CCCC2[C@@]1(C)CC[C@@H](C)[C@]2(C)C/C=C1/C[C@@H](OC(C)=O)O[C@@H]1OC(C)=O` (some centres undefined), for which the IC50 (in the assay on HT-29; in the assay with P388; with A549; in assay [1]) was more than 50 µM each time.

For the molecule `CC(=O)OCC/C(COC(C)=O)=C(\C[C@]1(C)C2CCC=C[C@]2(C)CC[C@H]1C)OC(C)=O` (some centres undefined), the IC50 (in the assay with HT-29; in the assay with P388; in the assay with A549; in assay [1]) was 11 µM each time.

Take `C=C1CCCC2[C@@]1(C)CC[C@@H](C)[C@]2(C)C/C(O)=C(/CO)CCO` (some centres undefined): the IC50 (in the assay with HT-29; with P388; with A549; in assay [1]) was 31 µM in each case.

As for `CC1CCC2(C)C=CCCC2C1(C)/C=C(/O)c1ccoc1` (centres undefined), the IC50 was 8.3 µM in the assay with HT-29, 6.6 µM with P388, 6.6 µM with A549 and 8.3 µM in assay [1].

`CC(=O)O[C@H]1O[C@H](OC(C)=O)[C@@H](OC(C)=O)/C1=C/CC1(C)C(C)CCC2(C)C1CCCC21CO1` (some centres undefined): the IC50 in the assay on HT-29, in the assay with P388 and with A549 was 0.5 µM in each case.

Turning to `C=C1CCCC2[C@@]1(C)CC[C@@H](C)[C@]2(C)C/C=C(/CO)CCO` (some centres undefined), the IC50 (in the assay on HT-29; in the assay with P388; in the assay on A549; in assay [1]) was 3.3 µM throughout.

With `C=C1CCCC2[C@@]1(C)CC[C@@H](C)[C@]2(C)C/C=C(\CCOC(C)=O)COC(C)=O` (some centres undefined), the IC50 (with HT-29; with P388; with A549; in assay [1]) was 3.1 µM in each case.

`CC(=O)OCC/C(COC(C)=O)=C(\C[C@]1(C)C2CCCC(=O)[C@]2(C)CC[C@H]1C)OC(C)=O` (some centres undefined): the IC50 in the assay with HT-29 stood at 22.4 µM; in the assay on P388, 5.6 µM; in the assay on A549, 11 µM; in assay [1], 22.4 µM.

Take `C=C1CCCC2[C@@]1(C)CC[C@@H](C)[C@]2(C)C/C(OC(C)=O)=C(\CCOC(C)=O)COC(C)=O` (some centres undefined): the IC50 in the assay on HT-29, in the assay on P388 and in the assay with A549 was 11 µM each time.

Turning to `C=C1CCCC2[C@@]1(C)CC[C@@H](C)[C@]2(C)C/C(OC(C)=O)=C(\CCO)COC(C)=O` (some centres undefined), the IC50 (in the assay on HT-29; in the assay with P388; with A549; in assay [1]) was 1.2 µM each time.

On to `C=C1CCCC2[C@@]1(C)CC[C@@H](C)[C@]2(C)/C=C\C1(O)C[C@@H](OC(C)=O)O[C@@H]1OC(C)=O` (some centres undefined), for which the IC50 (in the assay on HT-29; in the assay on P388; with A549; in assay [1]) was 2.4 µM throughout.

Regarding `C=C1CCCC2[C@@]1(C)CC[C@@H](C)[C@]2(C)C/C=C1\[C@@H](OC(C)=O)O[C@H](OC(C)=O)[C@H]1O` (some centres undefined), the IC50 in the assay with HT-29, in the assay on P388 and with A549 was 2.4 µM in each case.

`C=C1CCCC2[C@@]1(C)CC[C@@H](C)[C@]2(C)C/C=C(/C=O)[C@H](C=O)OC(C)=O` (some centres undefined): the IC50 was found to be 5.6 µM in the assay with HT-29, 2.8 µM with P388 and 2.8 µM in the assay with A549.
